Data published in ChEMBL document CHEMBL1149707, “Structure-activity relationship studies of carboxamido-biaryl ethers as opioid receptor antagonists (OpRAs). Part 1” (Bioorg Med Chem Lett, 2007).

What was measured:
[1] = target: T1, Delta-type opioid receptor (Homo sapiens, UniProt P41143); assay: Antagonist activity at human delta opioid receptor expressed in CHO cells by [35S]GTP-gamma-S binding assay; type: functional, cell-based
Mu-type opioid receptor [2] = target: T2, Mu-type opioid receptor (Homo sapiens, UniProt P35372); assay: Displacement of [3H]diprenorphine from human mu opioid receptor expressed in CHO cells in presence of high sodium by SPA; type: cell-based
[3] = target: T1, Delta-type opioid receptor; assay: Displacement of [3H]bremazocine from human delta opioid receptor expressed in CHO cells in presence of high sodium by SPA; type: cell-based
[4] = target: T3, Kappa-type opioid receptor (Homo sapiens, UniProt P41145); assay: Displacement of [3H]diprenorphine from human kappa opioid receptor expressed in CHO cells in presence of high sodium by SPA; type: cell-based
Mu-type opioid receptor [5] = target: T2, Mu-type opioid receptor; assay: Antagonist activity at human mu opioid receptor expressed in CHO cells by [35S]GTP-gamma-S binding assay; type: functional, cell-based
[6] = target: T3, Kappa-type opioid receptor; assay: Antagonist activity at human kappa opioid receptor expressed in CHO cells by [35S]GTP-gamma-S binding assay; type: functional, cell-based

T1 sequence (P41143 whole entry): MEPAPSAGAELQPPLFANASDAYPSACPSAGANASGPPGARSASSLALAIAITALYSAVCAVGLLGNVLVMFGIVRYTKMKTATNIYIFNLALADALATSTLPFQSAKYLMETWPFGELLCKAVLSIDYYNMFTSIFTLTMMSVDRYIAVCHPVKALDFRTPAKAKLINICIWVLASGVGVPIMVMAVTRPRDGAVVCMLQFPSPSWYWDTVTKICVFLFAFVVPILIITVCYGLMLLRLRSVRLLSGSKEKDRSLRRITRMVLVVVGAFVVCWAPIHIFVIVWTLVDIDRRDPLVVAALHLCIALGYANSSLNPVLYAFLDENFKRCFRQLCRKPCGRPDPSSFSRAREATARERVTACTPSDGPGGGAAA
T2 sequence (P35372 whole entry): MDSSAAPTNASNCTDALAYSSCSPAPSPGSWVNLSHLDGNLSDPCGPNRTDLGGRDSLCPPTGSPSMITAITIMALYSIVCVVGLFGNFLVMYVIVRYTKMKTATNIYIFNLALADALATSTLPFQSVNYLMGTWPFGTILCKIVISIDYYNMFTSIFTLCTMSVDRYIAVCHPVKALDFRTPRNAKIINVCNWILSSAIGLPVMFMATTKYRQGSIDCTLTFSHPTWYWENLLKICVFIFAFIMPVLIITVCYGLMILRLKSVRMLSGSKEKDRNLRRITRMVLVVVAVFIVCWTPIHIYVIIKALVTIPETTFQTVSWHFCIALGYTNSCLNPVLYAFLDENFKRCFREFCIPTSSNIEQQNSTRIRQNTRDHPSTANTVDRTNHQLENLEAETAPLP
T3 sequence (P41145 whole entry): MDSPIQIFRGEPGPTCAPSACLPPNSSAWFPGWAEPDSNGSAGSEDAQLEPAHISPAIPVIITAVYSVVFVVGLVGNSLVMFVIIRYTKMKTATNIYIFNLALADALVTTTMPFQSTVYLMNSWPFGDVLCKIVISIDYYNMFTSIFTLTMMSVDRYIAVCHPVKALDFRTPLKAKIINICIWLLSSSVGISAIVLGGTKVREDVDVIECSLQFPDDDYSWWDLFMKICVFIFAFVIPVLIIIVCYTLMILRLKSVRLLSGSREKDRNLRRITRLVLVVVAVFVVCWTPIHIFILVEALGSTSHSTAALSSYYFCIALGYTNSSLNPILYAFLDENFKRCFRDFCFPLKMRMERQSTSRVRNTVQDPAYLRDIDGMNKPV

| Structure (SMILES) | Kb [1] [nM] | Ki (Mu-type opioid receptor [2]) [nM] | Ki [3] [nM] | Ki [4] [nM] | Ki (Mu-type opioid receptor [5]) [nM] | Ki [6] [nM] |
| --- | --- | --- | --- | --- | --- | --- |
| CCNC(=O)c1ccc(Oc2ccc(CNCCc3ccccc3)cc2)nc1 |  | 57.1 | 674 | 2810 |  |  |
| NC(=O)c1ccc(Oc2ccc(CNCCc3ccccc3)cc2)nc1 |  | 0.17 |  |  | 0.07 |  |
| NC(=O)c1ccc(Oc2ccc(CCNCCc3ccccc3)cc2)nc1 | 128 |  |  |  | 16.6 | 23.3 |
| NC(=O)c1ccc(Oc2ccc(NCCCc3ccccc3)cc2)nc1 | > 1000 |  |  |  | > 1000 | > 1000 |
| CC(C)NC(=O)c1ccc(Oc2ccc(CNCCc3ccccc3)cc2)nc1 |  | 52.3 | 2410 | > 5000 |  |  |
| NS(=O)(=O)c1ccc(Oc2ccc(CCNCc3ccccc3)cc2)cc1 |  | > 2500 | > 5000 | > 5000 |  |  |
| C[C@H]1CN(CC[C@H](O)C2CCCCC2)CC[C@@]1(C)c1cccc(O)c1 | 1.19 |  | 4.82 |  |  |  |
| NC(=O)c1ccc(Oc2ccc(CCNCCCc3ccccc3)cc2)nc1 | 212 |  |  |  | 18.5 | 24.1 |
| CNC(=N)c1ccc(Oc2ccc(CNCCc3ccccc3)cc2)nc1 |  | 235 | 3460 | > 5000 |  |  |
| O=C(c1ccc(Oc2ccc(CNCCc3ccccc3)cc2)nc1)N1CCCCC1 |  | 389 | > 5000 | > 5000 |  |  |
| CNC(=O)c1ccc(Oc2ccc(CNCCc3ccccc3)cc2)nc1 |  | 52.3 | 718 | > 5000 |  |  |
| NC(=O)c1ccc(Oc2ccc(CCCNc3ccccc3)cc2)nc1 | > 1000 |  |  |  | > 1000 | > 1000 |
| NC(=O)c1ccc(Oc2ccc(CNCc3ccccc3)cc2)nc1 | 54.1 |  |  |  | 4.09 | 2.47 |

More lines, now with the values ahead:

| Kb [1] [nM] | Ki (Mu-type opioid receptor [2]) [nM] | Ki [3] [nM] | Ki [4] [nM] | Ki (Mu-type opioid receptor [5]) [nM] | Ki [6] [nM] | Structure (SMILES) |
| --- | --- | --- | --- | --- | --- | --- |
| 23.1 | 7.44 | 70.2 | 136 | 2.25 | 18.4 | NC(=O)c1ccc(Oc2ccc(CCNCc3ccccc3)cc2)nc1 |
|  | > 2500 | > 5000 | > 5000 |  |  | NCc1ccc(Oc2ccc(CCNCc3ccccc3)cc2)nc1 |
|  | > 2500 | > 5000 | > 5000 |  |  | NC(=O)c1ccnc(Oc2ccc(CCNCc3ccccc3)cc2)c1 |
|  |  |  | 15 |  | 1.22 | NC(=O)c1ccc(Oc2ccc(CNCCc3ccccc3)cc2)cc1 |
|  | > 2500 | > 5000 | > 5000 |  |  | NC(=O)c1cccnc1Oc1ccc(CCNCc2ccccc2)cc1 |
| 496 |  |  |  | 22.3 | 45.8 | NC(=O)c1ccc(Oc2ccc(CCCNCc3ccccc3)cc2)nc1 |
| 2.86 | 1.77 | 8.54 | 69.3 | 0.44 | 9.6 | NC(=O)c1ccc(Oc2ccc(CNCCc3ccccc3)cc2)cn1 |
|  | 643 | > 5000 | > 5000 |  |  | NC(=O)c1cccc(Oc2ccc(CCNCc3ccccc3)cc2)n1 |
|  | 1080 | > 5000 | > 5000 |  |  | N#Cc1ccc(Oc2ccc(CCNCc3ccccc3)cc2)nc1 |
|  | > 2500 | > 5000 | > 5000 |  |  | O=C(O)c1ccc(Oc2ccc(CCNCc3ccccc3)cc2)nc1 |
|  | 20.6 | 215 | 1150 |  |  | N=C(N)c1ccc(Oc2ccc(CNCCc3ccccc3)cc2)nc1 |
